From patent US5063208A, “Peptidyl aminodiol renin inhibitors” (Abbott Laboratories, priority 1990, dated 1991)
pIC50: −log10 of the molar value.

Target: T1, human renal renin (Homo sapiens, UniProt P00797)
T1 construct: human renal renin, free from acid proteolytic activity; from tissue
T1 sequence (P00797 67-406): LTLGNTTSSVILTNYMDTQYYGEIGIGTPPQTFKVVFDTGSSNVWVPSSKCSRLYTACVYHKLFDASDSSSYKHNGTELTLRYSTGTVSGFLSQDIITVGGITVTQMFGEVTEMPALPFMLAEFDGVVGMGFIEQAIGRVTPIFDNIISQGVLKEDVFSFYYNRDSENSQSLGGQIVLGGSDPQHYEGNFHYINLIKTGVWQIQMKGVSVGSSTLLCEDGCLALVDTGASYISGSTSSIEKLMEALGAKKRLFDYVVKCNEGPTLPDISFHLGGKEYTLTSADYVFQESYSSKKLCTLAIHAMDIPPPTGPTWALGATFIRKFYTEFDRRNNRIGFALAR
Assay: Inhibition of human renal renin in vitro (angiotensin I formed measured by radioimmunoassay)
Format: biochemical
Conditions: human renal renin free from acid proteolytic activity, renin substrate human angiotensinogen, 37 degrees C, pH 6.0; read-out: IC50 (molar concentration required to cause 50% inhibition)
Method: The compounds of the invention are also useful for treating congestive heart failure in a mammal. […] At the end of the incubation, the amount of angiotensin I formed is measured by radioimmunoassay and the molar concentration required to cause 50% inhibition, expressed as the IC50, is calculated.

| SMILES | pIC50 |
| --- | --- |
| CC(C)C[C@H](O)[C@H](O)[C@H](CC1CCCCC1)NC(=O)[C@H](Cc1cscn1)NC(=O)[C@@H](CC1=CSC2=NCCN12)Cc1ccccc1 [Example 105, (2R)-2-Benzyl-3-(5,6-dihydroimidazo[2,1-b]thiazol-3-yl)propionyl-L-(4-thiazolyl)Ala Amide of (2S,3R,4S)-2-Amino-1-cyclohexyl-3,4-dihydroxy-6-methylheptane] | 8.96 |
| CC(C)C[C@H](O)[C@H](O)[C@H](CC1CCCCC1)NC(=O)[C@H](Cc1cscn1)NC(=O)[C@@H](Cc1ccccc1)CS(=O)(=O)N(C)CCc1ccccn1 [Example 109, (2R)-2-Benzyl-3-[[2-pyridin-2-ylethyl(methyl)amino]sulfonyl]propionyl-L-(4-thiazolyl)Ala Amide of (2S,3R,4S)-2-Amino-1-cyclohexyl-3,4-dihydroxy-6-methylheptane] | 9.60 |
| CC(C)C[C@H](O)[C@H](O)[C@H](CC1CCCCC1)NC(=O)[C@H](Cc1cscn1)NC(=O)[C@@H](CC(=O)N(C)c1ccncc1)Cc1ccccc1 [Example 124, (2R)-2-Benzyl-3-[(N-pyridin-4-yl)methylaminocarbonyl]propionyl-L-(4-thiazolyl)Ala Amide of (2S,3R,4S)-2-Amino-1-cyclohexyl-3,4-dihydroxy-6-methylheptane] | 9.47 |
| CC(C)C[C@H](O)[C@H](O)[C@H](CC1CCCCC1)NC(=O)[C@H](Cc1cscn1)NC(=O)[C@@H](CC(=O)N(C)CCn1cccc1)Cc1ccccc1 [Example 153, (2R)-2-Benzyl-3-[(2-pyrrol-1-ylethyl)methylcarbonyl]propionyl-L-(4-thiazolyl)Ala Amide of (2S,3R,4S)-2-Amino-1-cyclohexyl-3,4-dihydroxy-6-methylheptane] | 9.55 |
| CC(C)C[C@H](O)[C@H](O)[C@H](CC1CCCCC1)NC(=O)[C@H](Cc1cscn1)NC(=O)[C@@H](CC(=O)CN1CCOCC1)Cc1ccccc1 [Example 95, (2R)-2-Benzyl-5-morpholin-4-yl-4-oxopentanoyl-L-(4-thiazolyl)Ala Amide of (2S,3R,4S)-2-Amino-1-cyclohexyl-3,4-dihydroxy-6-methylheptane] | 9.25 |
| CC(C)C[C@H](O)[C@H](O)[C@H](CC1CCCCC1)NC(=O)[C@H](Cc1cscn1)NC(=O)[C@H](Cc1ccccc1)Cc1cscn1 [Example 97, (2R)-2-Benzyl-3-thiazol-4-ylpropionyl-L-(4-thiazolyl)Ala Amide of (2S,3R,4S)-2-Amino-1-cyclohexyl-3,4-dihydroxy-6-methylheptane] | 9.17 |
| CC(C)C[C@H](O)[C@H](O)[C@H](CC1CCCCC1)NC(=O)[C@H](Cc1cscn1)NC(=O)[C@@H](CC(=O)C[S+]([O-])C(C)(C)C)Cc1ccccc1 (stereo partly drawn) [Example 99, (2R)-2-Benzyl-5-tert-butylsulfinyl-4-oxopentanoyl-L-(4-thiazolyl)Ala Amide of (2S,3R,4S)-2-Amino-1-cyclohexyl-3,4-dihydroxy-6-methylheptane] | 9.04 |
| CC(C)C[C@H](O)[C@H](O)[C@H](CC1CCCCC1)NC(=O)[C@H](Cn1cccn1)NC(=O)[C@@H](CC(=O)N(C)CCc1ccccn1)Cc1ccccc1 [Example 119, (2R)-2-Benzyl-3-[(2-pyridin-2-ylethyl)methylaminocarbonyl]propionyl-L-(1-pyrazolyl)Ala Amide of (2S,3R,4S)-2-Amino-1-cyclohexyl-3,4-dihydroxy-6-methylheptane] | 9.48 |
| CC(C)C[C@H](O)[C@H](O)[C@H](CC1CCCCC1)NC(=O)[C@H](Cc1cscn1)NC(=O)[C@H](Cc1ccccc1)Cn1ccnc1 [Example 102, (2R)-2-Benzyl-3-imidazol-1-ylpropionyl-L-(4-thiazolyl)Ala Amide of (2S,3R,4S)-2-Amino-1-cyclohexyl-3,4-dihydroxy-6-methylheptane] | 9.16 |
| CC(C)C[C@H](O)[C@H](O)[C@H](CC1CCCCC1)NC(=O)[C@H](Cc1cscn1)NC(=O)[C@@H](CC(=O)N1CCN(CC(F)(F)F)CC1)Cc1ccccc1 [Example 94, (2R)-2-Benzyl-3-(4-trifluoroethylpiperazin-1-ylcarbonyl)propionyl-L-(4-thiazolyl)Ala Amide of (2S,3R,4S)-2-Amino-1-cyclohexyl-3,4-dihydroxy-6-methylheptane] | 9.24 |
| CC(C)C[C@H](O)[C@H](O)[C@H](CC1CCCCC1)NC(=O)[C@H](Cn1cccn1)NC(=O)[C@@H](CC(=O)N(C)CCn1cccn1)Cc1ccccc1 [Example 142, (2R)-2-Benzyl-3-[(2-pyrazol-1-ylethyl)methylaminocarbonyl]propionyl-L-(1-pyrazolyl)Ala Amide of (2S,3R,4S)-2-Amino-1-cyclohexyl-3,4-dihydroxy-6-methylheptane] | 9.72 |
| CC(C)C[C@H](O)[C@H](O)[C@H](CC1CCCCC1)NC(=O)[C@H](Cc1cscn1)NC(=O)[C@@H](CC(=O)N(C)CCn1ccnc1)Cc1ccccc1 [Example 117, (2R)-2-Benzyl-3-[(2-imidazol-1-ylethyl)methylaminocarbonyl]propionyl-L-(4-thiazolyl)Ala Amide of (2S,3R,4S)-2-Amino-1-cyclohexyl-3,4-dihydroxy-6-methylheptane] | 9.52 |
| CN=c1scc(C[C@@H](Cc2ccccc2)C(=O)N[C@@H](Cc2cscn2)C(=O)N[C@@H](CC2CCCCC2)[C@@H](O)[C@@H](O)CC(C)C)n1C [Example 103, (2R)-2-Benzyl-3-(2-methylimino-3-methyl-2,3-dihydrothiazol-4-yl)propionyl-L-(4-thiazolyl) Ala Amide of (2S,3R,4S)-2-Amino-1-cyclohexyl-3,4-dihydroxy-6-methylheptane] | 9.37 |
| CC(C)C[C@H](O)[C@H](O)[C@H](CC1CCCCC1)NC(=O)[C@H](Cc1cscn1)NC(=O)[C@@H](CC(=O)N(C)CCc1ccccn1)Cc1ccccc1 [Example 114] | 9.48 |
| CC(C)C[C@H](O)[C@H](O)[C@H](CC1CCCCC1)NC(=O)[C@H](Cc1cscn1)NC(=O)[C@@H](CC(=O)N(C)CCc1c[nH]c2ccccc12)Cc1ccccc1 [Example 152, (2R)-2-Benzyl-3-[(2-indol-3-ylethyl)methylaminocarbonyl]propionyl-L-(4-thiazolyl)Ala Amide of (2S,3R,4S)-2-Amino-1-cyclohexyl-3,4-dihydroxy-6-methylheptane] | 9.23 |
| CCCC[C@H](NC(=O)[C@@H](CC(=O)N(C)CCn1cccn1)Cc1ccccc1)C(=O)N[C@@H](CC1CCCCC1)[C@@H](O)[C@@H](O)CC(C)C [Example 121, (2R)-2-Benzyl-3-[(2-pyrazol-1-ylethyl)methylaminocarbonyl]propionyl-Nle Amide of (2S,3R,4S)-2-Amino-1-cyclohexyl-3,4-dihydroxy-6-methylheptane] | 9.48 |
| CC(C)C[C@H](O)[C@H](O)[C@H](CC1CCCCC1)NC(=O)C(Cn1cccn1)N(C)C(=O)[C@@H](CC(=O)N(C)CCc1ccccn1)Cc1ccccc1 (stereo partly drawn) [Example 134, (2R)-2-Benzyl-3-[(2-pyridin-2-ylethyl)methylaminocarbonyl]propionyl-(N-α-methyl)-(1-pyrazolyl) alanine Amide of (2S,3R,4S)-2-Amino-1-cyclohexyl-3,4-dihydroxy-6-methylheptane] | 8.89 |
| CC(C)C[C@H](O)[C@H](O)[C@H](CC1CCCCC1)NC(=O)[C@H](Cc1cc[nH]n1)NC(=O)[C@@H](CC(=O)N(C)CCN1CCOCC1)Cc1ccccc1 [Example 155, (2R)-2-Benzyl-3-[(2-morpholin-4-ylethyl)methylcarbonyl]propionyl-L-(3-pyrazolyl)Ala Amide of (2S,3R,4S)-2-Amino-1-cyclohexyl-3,4-dihydroxy-6-methylheptane] | 9.49 |
| CC(C)C[C@H](O)[C@H](O)[C@H](CC1CCCCC1)NC(=O)[C@H](Cn1cccn1)NC(=O)[C@@H](CC(=O)N(C)CCN1CCOCC1)Cc1ccccc1 [Example 140, (2R)-2-Benzyl-3-[(2-morpholin-4-ylethyl)methylaminocarbonyl]propionyl-L-(1-pyrazolyl)Ala Amide of (2S,3R,4S)-2-Amino-1-cyclohexyl-3,4-dihydroxy-6-methylheptane.] | 9.92 |
| CC(C)C[C@H](O)[C@H](O)[C@H](CC1CCCCC1)NC(=O)[C@H](Cc1cccs1)NC(=O)[C@@H](CC(=O)N(C)CCn1cccn1)Cc1ccccc1 [Example 106, (2R)-2-Benzyl-3-[(2-pyrazol-1-ylethyl)methylaminocarbonyl]propionyl-L-(2-thienyl)Ala Amide of (2S,3R,4S)-2-Amino-1-cyclohexyl-3,4-dihydroxy-6-methylheptane] | 9.42 |
| CC(C)C[C@H](O)[C@H](O)[C@H](CC1CCCCC1)NC(=O)[C@H](Cn1ccnc1)NC(=O)[C@@H](CC(=O)N(C)CCn1cccn1)Cc1ccccc1 [Example 107, (2R)-2-Benzyl-3-[(2-pyrazol-1-ylethyl)methylaminocarbonyl]propionyl-L-(1-imidazolyl)Ala Amide of (2S,3R,4S)-2-Amino-1-cyclohexyl-3,4-dihydroxy-6-methylheptane] | 9.05 |
| CC(C)C[C@H](O)[C@H](O)[C@H](CC1CCCCC1)NC(=O)[C@H](Cc1cscn1)NC(=O)[C@@H](CC(=O)N(C)CCn1cccn1)Cc1ccccc1 [Example 118, (2R)-2-Benzyl-3-[(2-pyrazol-1-ylethyl)methylaminocarbonyl]propionyl-L-(4-thiazolyl)Ala Amide of (2S,3R,4S)-2-Amino-1-cyclohexyl-3,4-dihydroxy-6-methylheptane] | 9.52 |
